{"source": "patent US6518423B1", "about": "“Benzopiperidine derivatives” (Eisai Co., Ltd., priority 1996, dated 2003)"}
{"smiles": "O=C(O)C(F)=C1CCN(Cc2ccc3c(c2)Nc2nccnc2S3)CC1", "melting point": "167 to 173 °C"}
{"smiles": "CCCCNC(=O)OCc1ccc2c(c1)Nc1nccnc1S2", "melting point": "169 to 171 °C"}
{"smiles": "C/C(=C\\c1c(C)ncn1Cc1ccc2c(c1)Nc1nccnc1S2)C(=O)O", "melting point": "> 298 °C"}
{"smiles": "CN1c2ccc(C=O)cc2Nc2nccnc21", "melting point": "215 to 219 °C"}
{"smiles": "CS(=O)(=O)N=CNc1ccc(-c2cn(Cc3ccc4c(c3)Nc3nccnc3S4)cn2)cc1", "melting point": "159 to 162 °C"}
{"smiles": "c1cn(CCCc2ccc3c(c2)Nc2nccnc2S3)cn1", "melting point": "139 to 141 °C"}
{"smiles": "Cc1nccn1Cc1ccc2c(c1)Nc1nccnc1S2", "melting point": "244 to 246 °C"}
{"smiles": "CC(C(=O)O)C1CCN(Cc2ccc3c(c2)Nc2nccnc2S3)CC1", "note": "(stereo not shown)", "melting point": "240 to 243 °C"}
{"smiles": "COc1ccc2c(c1)N(C)c1nccnc1N2", "melting point": "195 to 197 °C"}
{"smiles": "c1csc(NCc2ccc3c(c2)Nc2nccnc2S3)n1", "melting point": "230 to 235 °C"}
{"smiles": "CC(=O)NC1CCN(Cc2ccc3c(c2)Nc2nccnc2S3)CC1", "melting point": "212 to 214 °C"}
{"smiles": "O=C(O)C(=O)NC1CCN(Cc2ccc3c(c2)Nc2nccnc2S3)CC1", "melting point": "222 to 226 °C"}
{"smiles": "CN1CCCN=C1Cc1ccc2c(c1)Nc1nccnc1S2.Cl", "melting point": "> 280 °C"}
{"smiles": "NCCN1CCN(c2ncnc3c2ncn3Cc2ccc3c(c2)Nc2nccnc2S3)CC1", "melting point": "226 to 229 °C"}
{"smiles": "N#CN=C(Cc1ccc2c(c1)Nc1nccnc1S2)NCCS(=O)(=O)[O-].[Na+]", "melting point": "213 to 215 °C"}
{"smiles": "CN1CCN(c2ncnc3c2ncn3Cc2ccc3c(c2)Nc2nccnc2S3)CC1", "melting point": "197 to 202 °C"}
{"smiles": "Cl.N=C(N)c1ccnc2c1Sc1ccccc1N2", "melting point": "> 280 °C"}
{"smiles": "N#CN=C(Cc1ccc2c(c1)Nc1nccnc1S2)NO", "melting point": "253 to 256 °C"}
{"smiles": "CN1c2ccc(CNC(N)=O)cc2Nc2nccnc21", "melting point": "> 275 °C"}
{"smiles": "O=C(O)COC1CCN(Cc2ccc3c(c2)Nc2nccnc2S3)CC1", "melting point": "204 to 207 °C"}
{"smiles": "c1cnc2c(n1)Nc1cc(Cn3cnnn3)ccc1S2", "melting point": "210 to 212 °C"}
{"smiles": "CC(C(=O)O)=C1CCN(Cc2ccc3c(c2)Nc2nccnc2S3)CC1", "melting point": "125 to 127 °C"}
{"smiles": "O=C([O-])Cc1ccc(OC2CCN(Cc3ccc4c(c3)Nc3nccnc3S4)CC2)cc1.[Na+]", "melting point": "261 to 265 °C (dec.)"}
{"smiles": "CCOC(=O)CC(=O)c1ccc2c(c1)Nc1nccnc1N2C", "melting point": "88 to 89 °C"}
{"smiles": "CC(CCC1(CO)CCN(Cc2ccc3c(c2)Nc2nccnc2S3)CC1)C(=O)O", "note": "(stereo not shown)", "melting point": "105 to 110 °C"}
{"smiles": "Cc1ncn(Cc2ccc3c(c2)Nc2nccnc2S3)c1C(C)O", "note": "(stereo not shown)", "melting point": "178 to 182 °C"}
{"smiles": "N/C(Cc1ccc2c(c1)Nc1nccnc1S2)=N\\S(=O)(=O)c1ccccc1", "melting point": "206 to 207 °C"}
{"smiles": "O=C(O)C1CC2CCC(C1)N2Cc1ccc2c(c1)Nc1nccnc1S2", "note": "(stereo not shown)", "melting point": "158 °C (dec.)"}
{"smiles": "CC(C)(CCCN1CCN(Cc2ccc3c(c2)Nc2nccnc2S3)CC1)C(=O)O", "note": "[751]", "melting point": "> 275 °C"}
{"smiles": "CN(C)S(=O)(=O)NC1CCN(Cc2ccc3c(c2)Sc2nccnc2N3)CC1", "melting point": "172 to 173 °C"}
{"smiles": "CC(CCC1CCN(Cc2ccc3c(c2)Sc2nccnc2N3)CC1)C(=O)O", "note": "(stereo not shown)", "melting point": "221 to 222 °C"}
{"smiles": "OC/C=C/CN1c2ccccc2Nc2nccnc21", "melting point": "197 to 199 °C"}
{"smiles": "COC(=O)CC1C2CCCC1CN(Cc1ccc3c(c1)N(C(=O)OC)c1nccnc1S3)C2", "note": "(stereo not shown)", "melting point": "106 to 108 °C"}
{"smiles": "Cc1cccc2c1Sc1nccnc1N2", "melting point": "165 to 166 °C"}
{"smiles": "CC(C(=O)O)c1ccc(NCc2ccc3c(c2)Nc2nccnc2S3)cc1.Cl", "note": "(stereo not shown)", "melting point": "228 to 233 °C"}
{"smiles": "C(=C\\c1ccc2c(c1)Nc1nccnc1S2)/c1ccncc1", "melting point": "> 275 °C"}
{"smiles": "CNC(Cc1ccc2c(c1)Nc1nccnc1S2)=NC#N", "melting point": "233 to 234 °C (dec.)"}
{"smiles": "C=CCN1c2ccccc2Nc2nccnc21", "melting point": "173 to 175 °C"}
{"smiles": "CN(C)c1nc(N(C)C)c2ncn(Cc3ccc4c(c3)Nc3nccnc3S4)c2n1", "melting point": "239 to 240 °C"}
{"smiles": "CN1c2ccc(-c3cnco3)cc2Nc2nccnc21", "melting point": "268 to 269 °C"}
{"smiles": "N/C(Cc1ccc2c(c1)Nc1nccnc1S2)=N\\S(=O)(=O)C(F)(F)F", "melting point": "200 to 202 °C"}
{"smiles": "COC(=O)c1ccc(CN2c3ccccc3Nc3nccnc32)cc1", "melting point": "232 to 234 °C"}
{"smiles": "c1ccc(Cc2nccn2Cc2ccc3c(c2)Nc2nccnc2S3)nc1", "melting point": "216 to 219 °C"}
{"smiles": "CS(=O)(=O)NCCc1cn(Cc2ccc3c(c2)Nc2nccnc2S3)cn1", "melting point": "173 to 176 °C"}
{"smiles": "CN(C)c1ncnc2c1ncn2Cc1ccc2c(c1)Nc1nccnc1S2", "melting point": "229 to 233 °C"}
{"smiles": "O=S(=O)(NC1CCN(Cc2ccc3c(c2)Nc2nccnc2S3)CC1)C(F)(F)F", "melting point": "199 to 201 °C"}
{"smiles": "CS(=O)(=O)/N=C/N1CCN(C(=N)Cc2ccc3c(c2)Nc2nccnc2S3)CC1.Cl", "melting point": "215 to 218 °C"}
{"smiles": "CC1CN(Cc2ccc3c(c2)Nc2nccnc2S3)CC(C)C1CC(=O)O", "note": "(stereo not shown)", "melting point": "200 °C (dec.)"}
{"smiles": "O=C(O)CSCC1CCN(Cc2ccc3c(c2)Nc2nccnc2S3)CC1", "melting point": "110 to 113 °C"}
{"smiles": "N#CN=C(N)c1ncnc2c1ncn2Cc1ccc2c(c1)Nc1nccnc1S2", "melting point": "> 290 °C"}
{"smiles": "O=C(O)C#CC1CCN(Cc2ccc3c(c2)Nc2nccnc2S3)CC1", "melting point": "155 to 156 °C"}
{"smiles": "O=C1CCN(Cc2ccc3c(c2)Nc2nccnc2S3)CC1", "melting point": "186 to 188 °C"}
{"smiles": "O=C(O)CCCCCCCCCCSc1ncnc2c1ncn2Cc1ccc2c(c1)Nc1nccnc1S2", "melting point": "154 to 156 °C"}
{"smiles": "O=C(O)COCCC1C2CCCC1CN(Cc1ccc3c(c1)Nc1nccnc1S3)C2", "note": "(stereo not shown)", "melting point": "108 to 113 °C"}
{"smiles": "CS(=O)(=O)/N=C(\\N)NCc1ccc2c(c1)Nc1nccnc1S2", "melting point": "244 to 245 °C"}
{"smiles": "c1ccc2ncc(NCc3ccc4c(c3)Nc3nccnc3S4)cc2c1", "melting point": "160 to 164 °C"}
{"smiles": "Cc1nc2c(nc(C)n2Cc2ccc3c(c2)Nc2nccnc2S3)c(=O)[nH]1", "melting point": "206 to 211 °C"}
{"smiles": "CC1(C(=O)O)C2CCCC1CN(Cc1ccc3c(c1)Nc1nccnc1S3)C2", "note": "(stereo not shown) [Example 116]", "melting point": "183 to 185 °C"}
{"smiles": "CS(=O)(=O)NCC1CCN(Cc2ccc3c(c2)Nc2nccnc2S3)CC1", "melting point": "218 to 221 °C"}
{"smiles": "O=C(O)C(F)C1C2CCCC1CN(Cc1ccc3c(c1)Nc1nccnc1S3)C2", "note": "(stereo not shown)", "melting point": "185 to 187 °C"}
{"smiles": "COC(=O)CC1C2CCCC1CN(Cc1ccc3c(c1)Nc1nccnc1S3)C2", "note": "(stereo not shown)", "melting point": "127 to 129 °C"}
{"smiles": "Cl.O[C@@H]1CN(Cc2ccc3c(c2)Nc2nccnc2S3)C[C@H]1O", "note": "(relative stereo)", "melting point": "241 to 242 °C (dec.)"}
{"smiles": "Nc1ncccc1NCc1ccc2c(c1)Nc1nccnc1S2", "melting point": "225 to 228 °C"}
{"smiles": "CN1CCN(Cc2ccc3c(c2)Nc2nccnc2S3)CC1", "melting point": "191 to 192 °C"}
{"smiles": "CC(CO)C1C2CCCC1CN(Cc1ccc3c(c1)Nc1nccnc1S3)C2", "note": "(stereo not shown)", "melting point": "88 to 92 °C"}
{"smiles": "OC1C2CCCC1CN(Cc1ccc3c(c1)Nc1nccnc1S3)C2", "note": "(stereo not shown) [Example 127]", "melting point": "189 to 192 °C"}
{"smiles": "O=C(O)CC1CC2CN(Cc3ccc4c(c3)Nc3nccnc3S4)CC2C1", "note": "(stereo not shown) [711]", "melting point": "112 to 117 °C"}
{"smiles": "O=C(O)c1ccc(Cc2nccn2Cc2ccc3c(c2)Nc2nccnc2S3)cc1", "melting point": "185 to 188 °C"}
{"smiles": "O=C(O)c1ccc(CNCc2ccc3c(c2)Nc2nccnc2S3)cc1", "melting point": "245 to 248 °C"}
{"smiles": "OC(C#Cc1ccccc1)c1ccc2c(c1)Nc1nccnc1S2", "note": "(stereo not shown)", "melting point": "192 to 194 °C"}
{"smiles": "O=C(O)/C=C/c1cn(Cc2ccc3c(c2)Nc2nccnc2S3)cn1", "melting point": "275 to 276 °C"}
{"smiles": "N#CC(CCC(=O)O)=C1CCN(Cc2ccc3c(c2)Nc2nccnc2S3)CC1", "melting point": "114 to 116 °C"}
{"smiles": "Brc1nccn1Cc1ccc2c(c1)Nc1nccnc1S2", "melting point": "256 to 258 °C"}
{"smiles": "CC(O)c1ncnc2c1ncn2Cc1ccc2c(c1)Nc1nccnc1S2", "note": "(stereo not shown)", "melting point": "210 to 212 °C"}
{"smiles": "N/C(=N\\[N+](=O)[O-])NCc1ccc2c(c1)Nc1nccnc1S2", "melting point": "226 to 228 °C"}
{"smiles": "c1ccc(CN2CCN(c3ncnc4c3ncn4Cc3ccc4c(c3)Nc3nccnc3S4)CC2)cc1", "melting point": "213 to 214 °C"}
{"smiles": "Cc1nc2ncncc2n1Cc1ccc2c(c1)Nc1nccnc1S2", "melting point": "> 275 °C"}
{"smiles": "O=C(Cc1ccc2c(c1)Nc1nccnc1S2)NCCCN1CCC(C(=O)O)CC1", "melting point": "143 °C (dec.)"}
{"smiles": "O=C(O)Cc1cccc(C2CCN(Cc3ccc4c(c3)Nc3nccnc3S4)CC2)c1", "melting point": "130 to 132 °C"}
{"smiles": "Cc1oncc1C(=O)NCCc1cn(Cc2ccc3c(c2)Nc2nccnc2S3)cn1", "melting point": "165 to 167 °C"}
{"smiles": "c1cc(NCc2ccc3c(c2)Nc2nccnc2S3)ccn1", "melting point": "194 to 196 °C"}
{"smiles": "CN1c2ccc(C#CCO)cc2Nc2nccnc21", "melting point": "241 to 243 °C"}
{"smiles": "O=C(O)Cc1ccc(OCC2CCN(Cc3ccc4c(c3)Nc3nccnc3S4)CC2)cc1", "melting point": "225 to 230 °C"}
{"smiles": "CC(=O)N1CCN(C(=N)Cc2ccc3c(c2)Nc2nccnc2S3)CC1.Cl", "melting point": "268 to 269 °C"}
{"smiles": "COCN1c2ccccc2Nc2nccnc21", "melting point": "185 to 188 °C"}
{"smiles": "c1cnc2c(n1)Nc1cc(Cn3cnc4c(N5CCCCC5)ncnc43)ccc1S2", "melting point": "228 to 229 °C"}
{"smiles": "c1ccc2c(c1)CN(Cc1ccc3c(c1)Nc1nccnc1S3)C2", "melting point": "219 to 220 °C"}
{"smiles": "OCCC12CCN(Cc3ccc4c(c3)Nc3nccnc3S4)CC1C2", "note": "(stereo not shown)", "melting point": "57 to 60 °C"}
{"smiles": "c1cnc(NCc2ccc3c(c2)Nc2nccnc2S3)nc1", "melting point": "232 to 235 °C"}
{"smiles": "C/C(=C\\c1ncn(Cc2ccc3c(c2)Nc2nccnc2S3)c1C)C(=O)O", "melting point": "> 290 °C"}
{"smiles": "CC12CCCC(C)(CN(Cc3ccc4c(c3)Nc3nccnc3S4)C1)C2CC(=O)O", "note": "(stereo not shown)", "melting point": "226 to 229 °C"}
{"smiles": "Cc1cc(NCc2ccc3c(c2)Nc2nccnc2S3)c2ccccc2n1", "melting point": "290 to 300 °C"}
{"smiles": "COc1cc(C2CCN(Cc3ccc4c(c3)Nc3nccnc3S4)CC2)ccc1CC(=O)O", "melting point": "171 to 177 °C (dec.)"}
{"smiles": "Cc1nc2cncnc2n1Cc1ccc2c(c1)Nc1nccnc1S2", "melting point": "191 to 193 °C"}
{"smiles": "NC(=O)c1ccc(NCc2ccc3c(c2)Nc2nccnc2S3)nc1", "melting point": "245 to 250 °C"}
{"smiles": "N=C(Cc1ccc2c(c1)Nc1nccnc1S2)N1CCC(O)CC1", "melting point": "265 to 267 °C"}
{"smiles": "CN(C)CCCNC(=O)Cc1ccc2c(c1)Nc1nccnc1S2", "melting point": "145 to 148 °C"}
{"smiles": "O=C1NC(=O)C2(CCN(Cc3ccc4c(c3)Nc3nccnc3S4)CC2)N1", "melting point": "> 275 °C"}
{"smiles": "N#CN=C(Cc1ccc2c(c1)Nc1nccnc1S2)NCc1ccc(S(N)(=O)=O)cc1", "melting point": "241 to 245 °C"}
{"smiles": "NS(=O)(=O)N1CCN(Cc2ccc3c(c2)Nc2nccnc2S3)CC1", "melting point": "215 to 217 °C (dec.)"}
